{"source": "patent US11857535B2", "about": "“Methods of treating mutant lymphomas” (Kymera Therapeutics, Inc., priority 2020, dated 2024)", "key": {"[1]": {"target": "T1, IRAK4 (Homo sapiens, UniProt Q9NWZ3)", "T1 construct": "endogenous in cells; host or cells: OCI-Ly10", "T1 sequence (Q9NWZ3 1-460)": "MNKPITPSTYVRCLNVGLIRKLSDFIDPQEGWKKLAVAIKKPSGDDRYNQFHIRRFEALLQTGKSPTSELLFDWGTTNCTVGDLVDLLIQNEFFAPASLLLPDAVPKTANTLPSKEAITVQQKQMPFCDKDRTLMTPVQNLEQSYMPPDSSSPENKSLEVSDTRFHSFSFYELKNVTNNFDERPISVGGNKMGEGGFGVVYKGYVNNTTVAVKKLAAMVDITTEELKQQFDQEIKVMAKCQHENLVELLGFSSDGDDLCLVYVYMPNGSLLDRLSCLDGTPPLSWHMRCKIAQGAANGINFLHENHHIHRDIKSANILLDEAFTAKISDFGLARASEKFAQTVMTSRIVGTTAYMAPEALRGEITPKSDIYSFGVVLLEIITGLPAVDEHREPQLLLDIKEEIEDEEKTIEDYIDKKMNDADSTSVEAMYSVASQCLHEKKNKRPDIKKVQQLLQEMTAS", "assay": "Deep proteomics / degradation time course in OCI-Ly10 (FIG. 8)", "type": "cell-based", "details": "OCI-Ly10, between 16-24 h post treatment", "excerpt": "FIG. 8 depicts deep proteomics scatterplots showing degradation of IRAK4 and IMiD substrates in OCI-Ly10 using Compound A. Type 1 IFN signaling was activated in OCI-Ly10 MYD88^MT DLBCL."}, "[2]": {"test_system": "OCI-LY10 human diffuse large B-cell lymphoma model", "assay": "Combination xenograph studies in OCI-LY10 model", "type": "in vivo, mouse", "experimental": "Study Purpose: The objective was to evaluate the efficacy of Compound A combinations in the OCI-LY10 human diffuse large B-cell lymphoma model in female CB-17 SCID mice.\nCell Culture: The OCI-LY10 tumor cells were maintained as a suspension in RPMI1640 medium supplemented with 10% fetal bovine serum and 100 μg/mL penicillin/100 μg/mL streptomycin (study 1) or 1% Antibiotic-Antimycotic (study 2) at 37° C. in an atmosphere of 5% CO2 in air. The tumor cells were routinely subcultured twice weekly by trypsin-EDTA treatment. The cells growing in an exponential growth phase were harvested and counted for tumor inoculation.\nAnimals: CB-17 SCID, female, 6-8 weeks, weighing approximately 18-22 g. In total of 56 animals (study 1) and 66 animals (study 2) were used in the study.\nTumor Inoculation: Each mouse was inoculated subcutaneously at the right flank with OCI-LY10 tumor cells (10×10^6) in 0.2 mL of PBS with matrigel for tumor development. The treatments were started when the tumor sizes reach 100 mm^3 for the study.\n3 days prior to treatment initiation, augment diet gel/supplement to all study animals. Compound are diluted to required dosing volume with 0.9% saline\nR-CHOP Dosing Sequence: Rituxan, IP; Doxorubicin, IV 15 min post Rituxan; Vincristine, IV 15 min post Doxorubicin; Cyclophosphamide, IV 15 min post Vincristine; Prednisone, PO 15 min post Cyclophosphamide.\nAssignment to Groups: Before commencement of treatment, all animals were weighed and the tumor volumes measured. Since the tumor volume can affect the compound efficacy, mice were assigned into groups using an Excel-based randomization procedure performing stratified randomization based upon their tumor volumes."}, "[3]": {"target": "T1, IRAK4", "assay": "IRAK4 degradation in OCI-LY10 xenograft tumors (UPLC-MS/MS, tumor PD)", "type": "in vivo", "details": "for IRAK4 (% Deg): tumor PD, after 5d dosing", "experimental": "At termination: At pre-determined time points based on study design, animals were humanely sacrificed by CO2. Blood was obtained by cardiac puncture for isolation of plasma, any residual tumor was removed and divided in 2 portions, 1 (minimal) for terminal compound exposure and 1 to determine IRAK4 and actin. Compound was determined in tumor and plasma using LC/MS with calibrated standards.\nInterleukin-1 receptor-associated kinase 4 (IRAK4) was quantified in human OCI-LY10 xenograft tumors, together with mouse splenocytes and peripheral blood mononuclear cells (PBMCs), by ultra-performance liquid chromatography-tandem mass spectrometry (UPLC-MS/MS). The concentrations of IRAK4 were normalized by the concentrations of actin in the respective samples. The tumors, splenocytes and PBMCs were lysed in tissue protein extraction reagent (T-PER, ThermoFisher). The samples were centrifuged at 10,000 rpm for 10 minutes. The supernatant (cell lysate) was transferred to another tube. The cell lysates were denatured, reduced, and alkylated with iodoacetamide. The alkylated samples were treated with trypsin to generate the IRAK4 peptide LAVAIK and the actin peptide GYSFTTTAER. These peptides are unique and specific to IRAK4 and actin, respectively, in human, rat and mouse cells and tissues due to sequence conservation between these species.\nSignature peptide concentrations were quantitated using a sensitive and specific targeted LC-MS/MS method. Corresponding mass-shifted, stable isotope-labeled peptides (LAV(d8)AIK and GYSF(d8)TTTAE(d6)R) were used as internal standards (ISs). Calibration standards and were prepared fresh on the day of analysis by diluting synthetic LAVAIK and […] peptides into 0.1% formic acid in 90/10 water acetonitrile (v/v). The standards and study samples) were aliquoted into a 96-well plate and mixed with IS spiking solution. The sample plate was covered with heating foil.\nSignature peptide levels (LAVAIK, GYSFTTTAER) were quantified by UPLC-MS/MS. Injections were made using a Shimadzu ultra performance liquid chromatograph (UPLC) platform. Mobile phase A was 0.1% formic acid in water. Mobile phase B was 0.1% formic acid in 90:10 acetonitrile/water (v/v). A SCIEX TripleTOF 6600 LC-MS/MS system was used for the detection and quantitation of analytes. The intensities of the analytes and ISs were determined by integration of extracted ion peak areas using Analyst and MultiQuant 3.0 software. Calibration curves were prepared by plotting the analyte to IS peak area ratio vs. concentration. The model for the calibration curves was linear with 1/x^2 weighting. […] Measured peptide levels were corrected for sample work up and converted to actual protein concentrations in ng/mg total protein of cell lysate. […]"}}}
{"smiles": "CC(C)(O)c1cc2nc([C@H]3CC[C@H](CN4CC5(CC(CCNc6cccc7c6C(=O)N(C6CCC(=O)NC6=O)C7=O)C5)C4)CC3)sc2cc1NC(=O)c1cccc(C(F)(F)F)n1", "note": "(stereo partly drawn) [Compound A, N-(2-((1r,4r)-4-((6-(2-((2-(2,6-dioxopiperidin-3-yl)-1,3-dioxoisoindolin-4-yl)amino)ethyl)-2-azaspiro[3.3]heptan-2-yl)methyl)cyclohexyl)-5-(2-hydroxypropan-2-yl)benzo[d]thiazol-6-yl)-6-(trifluoromethyl)picolinamide]", "values": [{"measurement": "degradation of IRAK4 (time course)", "setting": "[1]", "result": "> 80", "unit": "%"}, {"measurement": "combination effect with venetoclax", "setting": "[2]; mutant MYD88 OCI-Ly10 xenographs, Bliss independent method, FIG. 11", "result": "supra-additive"}, {"measurement": "combination effect with rituximab", "setting": "[2]; mutant MYD88 OCI-Ly10 xenographs, Bliss independent method, FIG. 12 upper graph", "result": "supra-additive"}, {"measurement": "combination effect with ibrutinib", "setting": "[2]; mutant MYD88 OCI-Ly10 xenographs, intermittent schedules, FIG. 10", "result": "additive"}, {"measurement": "combination with rituximab in relapsed tumors", "setting": "[2]; tumors that relapsed following initial R-CHOP treatment, FIG. 12 lower graph", "result": "strong tumor regressions"}, {"measurement": "tumor PD effect", "setting": "[3]; following a single dose, FIG. 4", "result": "sustained PD effect"}, {"measurement": "IRAK4 (% Deg)", "setting": "[3]; 3 mpk", "result": 16, "unit": "%"}, {"measurement": "IRAK4 (% Deg)", "setting": "[3]; 10 mpk", "result": 75, "unit": "%"}, {"measurement": "IRAK4 (% Deg)", "setting": "[3]; 30 mpk", "result": 83, "unit": "%"}]}
